Reference: PubChem BioAssay (NCI)
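In this assay, cells in 96-well plates receive the compound at five concentrations for 48 hours. Endpoints are linearly interpolated between the surrounding concentrations. At the TGI there is no net growth.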

What was measured:
Test in all cases: inhibition of tumour cell growth, NCI panel, 48 h
MCF7 breast = tested on: MCF7 breast
A498 renal = tested on: A498 renal
DU-145 prostate = tested on: DU-145 prostate
T-47D breast = tested on: T-47D breast
MDA-MB-435 = tested on: MDA-MB-435
PC-3 prostate = tested on: PC-3 prostate
MDA-N = tested on: MDA-N
HS 578T breast = tested on: HS 578T breast
MDA-MB-231 breast = tested on: MDA-MB-231 breast
BT-549 breast = tested on: BT-549 breast
LXFL 529 NSCLC = tested on: LXFL 529 NSCLC
RXF-631 renal = tested on: RXF-631 renal

In the case of `COc1ccc(/C=C2\CCNC2=O)cc1`, the TGI (MCF7 breast) is reported as over 100 µM and the TGI (A498 renal) is reported as over 100 µM.

Compound `NC(CCCCCP(=O)(c1ccccc1)C1C=CC=CC1)C(=O)O` (centres undefined) has a TGI (DU-145 prostate) of over 100 µM, a TGI (MCF7 breast) of over 100 µM and a TGI (T-47D breast) of over 100 µM. The TGI (MDA-MB-435) was over 100 µM, the TGI (PC-3 prostate) was over 100 µM and the TGI (MDA-N) was over 100 µM. For the same compound, the TGI (HS 578T breast) was over 100 µM, the TGI (MDA-MB-231 breast) was over 100 µM and the TGI (BT-549 breast) was over 100 µM.

In the case of `O=c1cc[nH]c(=O)[nH]1`, the TGI (MCF7 breast) is reported as over 1000 µM.

`C=CCc1c(O)c2c(c3oc(=O)cc(C)c13)CC(C)O2` (centres undefined) gave a TGI (LXFL 529 NSCLC) of over 100 µM.

For `CC(C)Cc1ccc(C(C)C(=O)N2CCN(/C=C/c3ccccc3)CC2)cc1` (centres undefined), the TGI (MCF7 breast) was 33.7 µM and the TGI (A498 renal) was 31.8 µM.

For `O=C1c2cccc3c2C(=O)c2c(cccc21)OCCOCCOCCOCCO3`, the TGI (RXF-631 renal) was over 100 µM and the TGI (LXFL 529 NSCLC) was over 100 µM.

`CCOc1ncn(-c2ccc(NC(=S)Nc3ncccn3)cc2)n1` gave a TGI (DU-145 prostate) of over 100 µM, a TGI (MCF7 breast) of over 100 µM and a TGI (T-47D breast) of 62.2 µM. It also gave a TGI (MDA-MB-435) of over 100 µM, a TGI (PC-3 prostate) of over 100 µM and a TGI (MDA-MB-231 breast) of 64.6 µM. For the same compound, the TGI (BT-549 breast) was 71.1 µM.
